Marks after values point to notes of the source that are not given here.
Tests used:
[1] = test system: TDP43A315T embryos; assay: mutant TDP-43-induced motor axonopathy in zebrafish embryos; type: in vivo; settings: zebrafish embryos
Experimental: FIG. 14: Inhibiting EphA4 signaling rescues motor axonopathies induced by overexpression of mutant TDP-43 and knockdown of Smn. Y-axes show motor axon length of zebrafish embryos (30 hpf) expressing TDP^WT (black bar) or TDP^A315T (white bar) (Panels A, B) or with unaltered (black bar) or reduced expression levels of Smn (white bar) (Panels C, D). Smn knockdown was established by injection of 3 ng (Panel C) or 6 ng (Panel D) atg-smn morpholino. Ctr-smn morpholino was injected as control. RTK1 signaling was inhibited by injection of 3 ng atg-RTK1 morpholino (shaded bars) (Panels A, C) or by treatment with C1 (500 μM, shaded bars) (Panels B, D). Injection of ctr-RTK1 morpholino and application of a 1/250 dilution of DMSO were used as control. ANOVA and Bonferroni's multiple comparison tests were used for statistical analysis: TDP^A315T/atg-RTK1 (n=24) vs. TDP^A315T/ctr-RTK1 (n=34, p=7.86×10^−5, Panel A), TDP^A315T/C1 (n=21) vs. TDP^A315T/DMSO (n=21, p=0.045, Panel B), atg-smn/atg-RTK1 (n=35) vs. atg-smn/ctr-RTK1 (n=35, p=4.93×10^−8, Panel C), atg-smn/C1 (n=91) vs. atg-smn/DMSO (n=105, p=1.27×10^−6, Panel D). Error bars are s.e.m.
Mann-Whitney test was used to determine significance between TDPA315T/ctr-RTK1 (4.5 ng) vs. TDPA315T/atg-RTK1 (4.5 ng, * p=0.001) and between TDPA315T/control vs. TDPA315T/C1 (° p=0.029). Control=1/250 DMSO and C1=500 μM.
(§1) A morpholino database of translation-blocking morpholinos (atg-mo) was used to perform a morpholino-based knockdown screening in a zebrafish model for ALS.^13 The standard control morpholino (5′-[…]-′3) (SEQ ID NO:4), provided by Gene tools, was used as control. Three nanograms of morpholino were co-injected with […] of SOD1 mRNA and the effect of gene knockdown on the mutant SOD1-induced axonopathy analyzed. Each morpholino was tested in two separate experiments. Only morphologically normal embryos were included for further analysis. Overexpression of SOD1 or TDP-43, applied to validate the protective morpholino, was established by injection of 1.76 ng SOD1 mRNA or 1.43 ng TDP-43 mRNA, respectively. Antisense morpholinos to knockdown zebrafish RTK1, RTK2, Smn and their five base pair-mismatch control morpholinos were developed by Gene tools: atg-RTK1 (5′-[…]-′3) (SEQ ID NO:5), atg-RTK2 (5′-[…]-[…]-′3) (SEQ ID NO:6), splice-RTK2 (5′-[…]-[…]-′3) (SEQ ID NO:7) and atg-smn (5′-[…]-3′) (SEQ ID NO:8). Compound 1 (2,5-dimethylpyrrolyl benzoic acid, Matrix Scientific) dissolved in DMSO was added to the water of 6-hpf-old zebrafish embryos.

[2] = test system: mutant SOD1-overexpressing fish; assay: mutant SOD1-induced motor axonopathy in zebrafish embryos (percentage affected embryos, motor axon length); type: in vivo; settings: for % affected embryos: Table 3, SOD1A4V embryos
From the text: FIG. 1: EphA4 knockdown rescues mutant SOD1-induced motor axonopathy. […] Abnormal branching is indicated with arrowhead. Y-axes show motor axon length of zebrafish embryos expressing wild-type SOD1 (black bar, Panels D-G) or mutant SOD1 (white bar, Panels D-G). Knockdown of RTK2 in SOD1A4V- (Panel D), SOD1G93A- (Panel E) and SOD1G37R- (Panel F) expressing fish was established by co-injection of increasing amounts of atg-RTK2 morpholino (shaded bars). RTK1 expression was inhibited in SOD1A4V-expressing fish by co-injection of atg-RTK1 morpholino (shaded bars, Panel G). Ctr-RTK2 and ctr-RTK1 were used as control. ANOVA and Bonferroni's multiple comparison tests were used for statistical analysis. Comparing axonal length in SOD1A4V fish injected with ctr-RTK2 (n=39) vs. different doses atg-RTK2: 3 ng (n=43, p=0.0059), 4.5 ng (n=37, p=0.0016, Panel D), SOD1G93A: ctr-RTK2 (n=60) vs. atg-RTK2: 1.5 ng (n=55, p=0.015), 3 ng (n=51, p=2.82×10-9), 4.5 ng (n=46, p=2.22×10-15, Panel E), SOD1G37R: ctr-RTK2 (n=37) vs. atg-RTK2: 3 ng (n=25, p=0.027), 4.5 ng (n=36, p=0.0018, Panel F) and SOD1A4V: ctr-RTK1 (n=49) vs. atg-RTK1: 1.5 ng (n=51, p=2.51×10-7), 3 ng (n=64, p=7.99×10-10), 4.5 ng (n=54, p<1×10-20, Panel G). Western blot of SOD1WT or SOD1A4V (1.76 ng) expressing zebrafish embryos (30 hpf), co-injected with either ctr-RTK1 or atg-RTK1 (4.5 ng). Sixty embryos were used per group with actin as the loading control (H). Immunostaining of rtk1 (green) in rhombomeres 3 and 5 and of ephrin-b2 (magenta) in rhombomere 4 in zebrafish embryos injected with either ctr-RTK1 or atg-RTK1 (4.5 ng). RTK1-depleted embryos show disorganized rhombomere boundaries (arrowhead, I, Scale bar 50 μm). Error bars are s.e.m.
FIG. 2: RTK2 knockdown protects motor axons against SOD1^A4V-induced injury. Effect of RTK2 knockdown, established by injection of splice-rtk2 morpholino, on the motor axon length of SOD1^A4V-expressing zebrafish embryos (30 hpf). SOD1^WT-expressing fish and a non-functional five-base pair-mismatch control morpholino (ctr-RTK2) were used as control (Panel A). ANOVA and Bonferroni's multiple comparison tests were used for statistical analysis: SOD1^A4V/ctr-RTK2 (n=56) vs. SOD1^A4V/spl-RTK2 (n=60, 1.79×10^−4). Spl-RTK2 was designed against the exon 2 splice site of the zebrafish RTK2 pre-mRNA and alternatively skipped out exon 2. RT-PCR on non-transgenic fish (lane 1), ctr-RTK2-injected fish (lane 2) and spl-RTK2-injected fish (lane 3) at 30 hpf. Functional RTK2 mRNA, containing exon 2, is indicated by the 818-bp product (upper band) while non-functional RTK2 mRNA, lacking exon 2 is indicated by the 156-bp product (lower band), 60 embryos each group (Panel B). Error bars are s.e.m.
(§2) FIG. 12: Pharmacological inhibition of EphA4 receptor signaling protects against mutant SOD1 pathology in vivo. Effect of treatment with Compound 1 (C1, 500 μM) on the motor axon length of zebrafish embryos (30 hpf). DMSO (1/250 dilution) was used as control (Panel A). ANOVA and Bonferroni's multiple comparison tests were used for statistical analysis: SOD1^A4V/C1 (n=68) vs. SOD1^A4V/DMSO (n=76, p=3.54×10^−5). Effect of KYL-peptide (3 mM) treatment of 60-day-old SOD1^G93A rats on disease onset (Panel B) and survival (Panel C). Artificial CSF (ACSF) was used as control. Average disease onset: 133 days (treated, n=21) versus 125 days (control, n=17, T-test p=0.044). Average survival: 148 days (treated, n=21) versus 139 days (controls, n=17, T-test p=0.041). Error bars are s.e.m.
Effect of RTK2 knockdown (established by injection of atg-RTK2 morpholino) on the percentage of affected wild-type SOD1 or mutant SOD1 (A4V, G93A, G37R) zebrafish embryos (30 hpf). Ctr-RTK2 morpholino was used as control. An embryo was considered as affected when it had more than 10% abnormally branched motor axons. Significance of mtSOD1/ctr-RTK2 (4.5 ng) vs. mtSOD1/atg-RTK2 (4.5 ng) was determined by Mann-Whitney test, * p=0.0075, ° p=0.039 and # p=0.0052. […]

[3] = test system: zebrafish embryos; assay: morpholino-based smn knockdown: abnormally branched and truncated motor axons in zebrafish embryos; type: in vivo; settings: for truncation affected (%): affected = more than 5% truncated motor axons; for branching affected (%): affected = more than 10% abnormally branched motor axons
Experimental: FIG. 15: Smn knockdown reduces the motor axon length in zebrafish embryos. […] The non-functional five-base pair-mismatch control morpholino (ctr-smn) was used as control. ANOVA and Bonferroni's multiple comparison tests were used for statistical analysis: ctr-smn (6 ng, n=42) vs. 3 ng atg-smn (n=28, p=8.99×10^−3), 4.5 ng atg-smn (n=30, 3.37×10^−7), 6 ng atg-smn (n=41, p<1×10-20). Error bars are s.e.m.
Effect of smn knockdown, induced by injection of increasing amounts of atg-smn morpholino, on the percentage affected embryos. An embryo was considered as affected when it had more than 10% abnormally branched or more than 5% truncated motor axons. Significance of ctr-smn (6 ng) vs. atg-smn (6 ng) was determined by Mann-Whitney test, *p=3×10-4, ° p=1.3×10-4.
as §1

[4] = test system: SOD1G93A rat; assay: KYL peptide intracerebroventricular treatment of SOD1G93A rats (disease onset, survival); type: in vivo
Experimental: as §2
EphA4−/− mice were mated with SOD1G93A mice for at least six generations. All experiments were littermate and gender controlled. […] The EphA4 blocking peptide ([…] (SEQ ID NO:1)-95% purity; Eurogentec) was a 3 mM solution in artificial cerebrospinal fluid and infused into the left lateral ventricle of 60-day-old female rats, using mini-osmotic pumps (28 days, 0.25 μl/h, Model 2004, Alzet) as previously described.^46 Disease onset, progression and survival of SOD1G93A rats were analyzed by weight and rotarod performance (five times for three minutes at 15 rpm) three times a week. […]

[5] = target: EphA4 (Homo sapiens, UniProt P54764); settings: WO2004/028551; cited from earlier work
Sequence of EphA4 (P54764 20-986, species assumed): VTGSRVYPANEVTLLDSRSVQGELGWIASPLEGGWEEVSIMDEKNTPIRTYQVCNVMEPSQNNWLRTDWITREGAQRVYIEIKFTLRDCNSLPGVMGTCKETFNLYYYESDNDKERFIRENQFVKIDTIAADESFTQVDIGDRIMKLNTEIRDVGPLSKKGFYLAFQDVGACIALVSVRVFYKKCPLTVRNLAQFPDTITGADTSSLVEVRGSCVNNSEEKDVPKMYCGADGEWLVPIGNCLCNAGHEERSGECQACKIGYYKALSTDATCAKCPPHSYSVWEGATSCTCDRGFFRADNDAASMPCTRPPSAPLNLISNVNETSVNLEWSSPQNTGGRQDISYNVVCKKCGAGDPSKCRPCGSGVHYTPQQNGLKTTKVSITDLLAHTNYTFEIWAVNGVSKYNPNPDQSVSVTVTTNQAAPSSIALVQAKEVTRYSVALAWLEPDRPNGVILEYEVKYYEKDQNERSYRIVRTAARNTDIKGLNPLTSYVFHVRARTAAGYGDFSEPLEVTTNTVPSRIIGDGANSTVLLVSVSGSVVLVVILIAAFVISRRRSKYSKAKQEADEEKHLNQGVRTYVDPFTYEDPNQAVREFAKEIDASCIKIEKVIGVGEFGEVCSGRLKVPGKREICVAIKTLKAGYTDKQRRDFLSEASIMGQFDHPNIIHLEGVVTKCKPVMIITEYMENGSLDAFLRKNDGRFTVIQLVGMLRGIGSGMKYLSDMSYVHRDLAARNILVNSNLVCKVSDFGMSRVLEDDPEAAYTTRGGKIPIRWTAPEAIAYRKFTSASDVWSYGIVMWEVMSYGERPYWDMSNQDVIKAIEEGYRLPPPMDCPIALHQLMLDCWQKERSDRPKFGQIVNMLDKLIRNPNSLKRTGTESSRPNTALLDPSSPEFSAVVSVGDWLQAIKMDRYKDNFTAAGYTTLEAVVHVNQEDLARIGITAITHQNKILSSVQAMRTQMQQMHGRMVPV

In the case of “2,5-dimethylpyrrolyl benzoic acid [Compound C1]”, the “effect on outgrowth deficit and aberrant branching induced by mutant TDP-43” value [1] is reported as “rescued the outgrowth deficit and aberrant branching induced by mutant TDP-43”.

For “5′-CCTCCCACTGA-AAATGGACAGAGGA-′3 (antisense CCTCCCACTGAAAATGGACAGAGGA; all phosphorodiamidate morpholino (PMO)) [spl-RTK2]”, the “effect on mutant SOD1-induced axonopathy” value ([2]; SOD1A4V zebrafish embryos, 30 hpf) was “replicating the protective effect of RTK2 knockdown”, the “% affected embryos” value ([2]; morpholino 0.4 ng) was 40 (30) % and the “% affected embryos” value ([2]; morpholino 0.8 ng) was 19 (31) %. For the same substance, the “% affected embryos” value ([2]; morpholino 1.5 ng) was 13* (31) %.

With “5′-CGACATCTTCTGCACCATTGGC-3′ (all phosphorodiamidate morpholino (PMO)) [atg-smn]” the “truncation affected (%)” value ([3]; morpholino 3 ng) was 7%, the “branching affected (%)” value ([3]; morpholino 3 ng) was 39% and the “truncation affected (%)” value ([3]; morpholino 4.5 ng) was 11%. The “branching affected (%)” value ([3]; morpholino 4.5 ng) was 46%, the “truncation affected (%)” value ([3]; morpholino 6 ng) was 42° % and the “branching affected (%)” value ([3]; morpholino 6 ng) was 71* %.

In the case of “KYLPYWPVLSSL (EphA4 inhibitory peptide) [KYL peptide]”, the Average survival ([4]; KYL-peptide 3 mM intracerebroventricular from day 60, controls 139 days) is listed as 148 days, the Average disease onset ([4]; KYL-peptide 3 mM intracerebroventricular from day 60, onset by rotarod, control 125 days) is listed as 133 days and the “binding to EphA4” value [5] is listed as “preferentially bind to EphA4”.

In the case of “VTMEAINLAFPG (EphA4 inhibitory peptide) [VTM peptide]”, the “binding to EphA4” value [5] is listed as “preferentially bind to EphA4”.
